Laboratory results published in patent publication US9809552B2, “Piperazine derivatives as FASN inhibitors” (Merck Patent GmbH, priority 2013, dated 2017).

These compounds were tested against T1, human recombinant full-length fatty acid synthase (FASN) (Homo sapiens, UniProt P49327) (assay: Biochemical activity testing of human fatty acid synthase FASN (NADPH fluorescence intensity enzyme assay)). Conditions: 15 min pre-incubation, 30 min reaction at room temperature.
T1 construct: human recombinant full-length fatty acid synthase (produced in-house in SF9 cells); made in house; host or cells: SF9 insect cells
T1 sequence (P49327 whole entry): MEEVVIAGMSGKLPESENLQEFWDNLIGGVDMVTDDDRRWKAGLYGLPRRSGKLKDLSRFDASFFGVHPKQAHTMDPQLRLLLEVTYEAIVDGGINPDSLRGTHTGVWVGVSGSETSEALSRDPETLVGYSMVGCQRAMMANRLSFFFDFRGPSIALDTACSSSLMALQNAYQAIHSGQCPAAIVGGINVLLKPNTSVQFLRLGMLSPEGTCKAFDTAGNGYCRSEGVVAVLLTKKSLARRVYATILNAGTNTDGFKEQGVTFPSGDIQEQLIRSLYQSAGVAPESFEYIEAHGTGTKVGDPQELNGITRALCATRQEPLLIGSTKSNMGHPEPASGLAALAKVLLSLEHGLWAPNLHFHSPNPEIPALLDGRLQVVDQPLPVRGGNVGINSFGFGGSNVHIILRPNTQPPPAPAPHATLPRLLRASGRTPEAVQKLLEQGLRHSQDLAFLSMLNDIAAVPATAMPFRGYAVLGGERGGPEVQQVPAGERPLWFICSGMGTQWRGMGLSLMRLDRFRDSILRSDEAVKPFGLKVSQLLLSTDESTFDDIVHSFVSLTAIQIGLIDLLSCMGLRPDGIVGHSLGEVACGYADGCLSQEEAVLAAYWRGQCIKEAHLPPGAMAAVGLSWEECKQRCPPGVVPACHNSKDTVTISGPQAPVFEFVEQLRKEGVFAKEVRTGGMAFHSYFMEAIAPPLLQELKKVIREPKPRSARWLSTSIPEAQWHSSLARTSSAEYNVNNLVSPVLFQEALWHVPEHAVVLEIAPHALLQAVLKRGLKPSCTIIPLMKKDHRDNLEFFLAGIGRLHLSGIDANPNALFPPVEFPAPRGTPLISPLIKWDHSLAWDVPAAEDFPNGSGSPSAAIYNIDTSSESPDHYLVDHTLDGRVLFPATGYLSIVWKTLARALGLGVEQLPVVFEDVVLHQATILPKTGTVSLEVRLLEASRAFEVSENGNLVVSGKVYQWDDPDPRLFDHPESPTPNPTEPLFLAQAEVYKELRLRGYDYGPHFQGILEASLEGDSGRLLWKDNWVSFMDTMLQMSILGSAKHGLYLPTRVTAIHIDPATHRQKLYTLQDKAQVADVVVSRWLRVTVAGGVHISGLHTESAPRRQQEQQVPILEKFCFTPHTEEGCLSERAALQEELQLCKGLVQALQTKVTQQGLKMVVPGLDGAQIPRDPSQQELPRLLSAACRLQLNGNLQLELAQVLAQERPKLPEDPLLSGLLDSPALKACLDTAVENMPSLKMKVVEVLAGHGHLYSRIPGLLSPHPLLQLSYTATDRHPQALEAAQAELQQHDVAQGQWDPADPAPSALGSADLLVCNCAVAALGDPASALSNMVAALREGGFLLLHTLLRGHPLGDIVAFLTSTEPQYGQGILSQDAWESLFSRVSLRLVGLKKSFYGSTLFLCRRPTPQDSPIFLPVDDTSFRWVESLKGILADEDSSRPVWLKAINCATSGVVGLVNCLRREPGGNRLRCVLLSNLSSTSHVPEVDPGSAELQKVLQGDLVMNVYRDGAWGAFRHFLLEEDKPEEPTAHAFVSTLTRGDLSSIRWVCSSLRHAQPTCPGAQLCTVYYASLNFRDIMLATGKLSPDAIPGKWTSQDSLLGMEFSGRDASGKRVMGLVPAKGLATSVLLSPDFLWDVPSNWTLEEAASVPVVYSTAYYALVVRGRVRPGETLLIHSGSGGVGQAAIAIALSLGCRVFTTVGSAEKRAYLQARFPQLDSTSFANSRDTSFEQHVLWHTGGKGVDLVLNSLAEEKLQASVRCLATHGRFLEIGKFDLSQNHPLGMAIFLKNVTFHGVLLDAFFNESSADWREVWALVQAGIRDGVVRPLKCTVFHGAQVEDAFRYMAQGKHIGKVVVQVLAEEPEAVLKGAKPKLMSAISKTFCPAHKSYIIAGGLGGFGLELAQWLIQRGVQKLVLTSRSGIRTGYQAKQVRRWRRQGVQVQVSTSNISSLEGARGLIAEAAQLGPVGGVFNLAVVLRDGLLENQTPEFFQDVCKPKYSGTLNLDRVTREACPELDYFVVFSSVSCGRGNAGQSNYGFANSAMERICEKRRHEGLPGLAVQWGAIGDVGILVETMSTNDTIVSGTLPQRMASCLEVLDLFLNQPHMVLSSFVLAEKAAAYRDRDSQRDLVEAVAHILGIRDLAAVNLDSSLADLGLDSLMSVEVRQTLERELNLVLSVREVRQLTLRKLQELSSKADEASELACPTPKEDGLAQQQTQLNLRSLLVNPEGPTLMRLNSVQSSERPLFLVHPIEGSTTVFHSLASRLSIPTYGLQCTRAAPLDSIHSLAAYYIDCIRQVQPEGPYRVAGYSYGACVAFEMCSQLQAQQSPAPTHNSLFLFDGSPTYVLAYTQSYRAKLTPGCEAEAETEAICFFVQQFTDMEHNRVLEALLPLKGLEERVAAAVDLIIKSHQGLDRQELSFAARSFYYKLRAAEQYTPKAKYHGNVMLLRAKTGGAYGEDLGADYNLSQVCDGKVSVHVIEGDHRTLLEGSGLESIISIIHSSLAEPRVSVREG
Description: Biochemical activity testing of human fatty acid synthase FASN
Fatty acid synthase FASN is a multifunctional enzyme with seven catalytic activities thereby synthesising long chain fatty acids especially palmitoyl-CoA in the presence of co-factor NADPH starting from the substrates acetyl-CoA and malonyl-CoA. The reductive synthesis is realized by the oxidation of NADPH to NADP. Since NADPH has a high fluorescence intensity quantum yield compared to NADP with excitation at 340 nm and emission at 460 nm, the reaction can be monitored via the decrease in fluorescence intensity. The biochemical FASN activity testing was performed as 384 well two-time-point kinetic fluorescence intensity assay format in Greiner low volume medium binding 384-well black microtiter plates in a total assay volume of 8 μl and was used for high throughput screen. In each well 3 μl 40 nM human recombinant full-length fatty acid synthase (produced in-house in SF9 cells) were dispensed in the following assay buffer: 50 mM potassium phosphate buffer pH 7.0, 0.005% (w/v) BSA, 2 mM Glutathione, 0.02% Tween-20. Then 2 μl of 200 μM NADPH in assay buffer were added, followed by the addition of the test compounds in 10 dilution concentrations starting with 30 μM (final concentration) to get a final DMSO content of 1% (v/v). The mixture was incubated for at least 15 min at room temperature. After the pre-incubation the enzymatic reaction was started by the addition of 2 μl substrate solution (80 μM acetyl-CoA, 240 μM malonyl-CoA). A first fluorescence intensity measurement (time point one) was performed with an Envision multimode reader (Perkin Elmer LAS Germany GmbH) at excitation wavelength 340 nm (lamp mode) and emission wavelength 460 nm. The reaction was incubated for 30 minutes at room temperature. After this the fluorescence intensity was measured again in the Envision using the same parameters as described above (second time point measurement). The data were analysed by subtracting the first time point measurement value from the second time point measurement value (after the enzymatic reaction). The differences of the emission signals were determined. These reflect directly the conversion rate of NADPH. The full value used was the inhibitor-free reaction. A pharmacological zero value was used like GSK837149A (Sigma-Aldrich) in a final concentration of 5-10 μM. The inhibitory values (IC50) were determined using either the program Symyx Assay Explorer® or Condosseo® from GeneData.

Question: CCC(=O)N1CCN(C(=O)c2ccc(-c3ccc4cnccc4c3)cc2)CC1 [Compound A1, 1-[4-(4-isoquinolin-6-yl-benzoyl)-piperazin-1-yl]-propan-1-one] was tested. Which IC50 did it give?
Answer: < 300 nM

Question: With CC(=O)N1CCN(C(=O)c2ccc(-c3ccc4cnccc4c3)cc2)CC1 [Compound A2, 1-[4-(4-isoquinolin-6-yl-benzoyl)-piperazin-1-yl]ethanone] as the compound, how does the IC50 read?
Answer: 300 to 3000 nM

Question: With O=C(c1ccc(-c2ccc3cnccc3c2)cc1)N1CCN(C(=O)C2CC2)CC1 [Compound A3, (4-cyclopropanecarbonyl-piperazin-1-yl)-(4-isoquinolin-6-yl-phenyl)-methanone] as the compound, how does the IC50 read?
Answer: < 300 nM

Question: CCCC(=O)N1CCN(C(=O)c2ccc(-c3ccc4cnc(OC)cc4c3)cc2)CC1 [Compound A4, 1-{4-[4-(3-methoxy-isoquinolin-6-yl)-benzoyl]-piperazin-1-yl}-butan-1-one] was tested. Which IC50 did it give?
Answer: 300 to 3000 nM

Question: How did the IC50 turn out when CCCCC(=O)N1CCN(C(=O)c2ccc(-c3ccc4cnccc4c3)cc2)CC1 [Compound A5, 1-[4-(4-isoquinolin-6-yl-benzoyl)-piperazin-1-yl]-pentan-1-one] was run?
Answer: < 300 nM

Question: CCCC(=O)N1CCN(C(=O)c2ccc(-c3ccc4cnccc4c3)cc2)CC1 [Compound A6, 1-[4-(4-isoquinolin-6-yl-benzoyl)-piperazin-1-yl]-butan-1-one] was tested. Which IC50 did it give?
Answer: < 300 nM

Question: With CCC(=O)N1CCN(C(=O)c2ccc(-c3ccc4c[n+]([O-])ccc4c3)cc2)CC1 [Compound A7, 1-{4-[4-(2-oxy-isoquinolin-6-yl)-benzoyl]-piperazin-1-yl}-propan-1-one] as the compound, how does the IC50 read?
Answer: < 300 nM
